Experimental data reported in patent publication US20250360235A1, “RADI[…] AND METHOD FOR RADIOLABELLING” (Telix Innovations SA, priority 2024, published 2025).

Test: Radiochemical purity by iTLC over time after radiolabelling
Assay type: physicochemical
Method: Table 1 to Table 5 show the results of various radiolabelling experiments on radiochemical purity and the chelation yield. The radiolabelling experiments in the tables are carried out as described in: • Example 1 for when the gallium-68 source is GE Liquid target generator and EZAG GalliaPharm generator; • Example 2 for when the gallium-68 source is IRE Galli Eo generator; • Example 3 for when the gallium-68 source is GE solid target generator;
However, the experiments were carried out with the amount of ascorbic acid as indicated in the Tables 1 to 5, and the activity as indicated in the Tables 1 to 5. Radiochemical purities were measured at various times (T0, T1, T4, T6) after the radiolabelled experiments have been conducted.
The kits of Example 1, Example 2 or Example 3, with amounts of ascorbic acid as set out in Table 7 were used in the experiments for the ascorbic acid bracketing matrix. Three strengths of [^68Ga]Ga-PSMA-11 will be tested, i.e. 50 mCi/ml, 7 mCi/ml and 1 mCi/ml. Radiochemical purity was determined at different time points (TO, T1, T4 or T6), as set out in Table 7.

[1] = 25 mg ascorbic acid, 46.0-46.1 mCi, 4.38-4.39 mCi/mL, EZAG GalliaPharm, average of 2, T4 (4 h)
[2] = 25 mg ascorbic acid, 46.0-46.1 mCi, 4.38-4.39 mCi/mL, EZAG GalliaPharm, n=2, T0
[3] = 25 mg ascorbic acid, 46.0-46.1 mCi, 4.38-4.39 mCi/mL, EZAG GalliaPharm, n=2, T4 (4 h)
[4] = bracketing ~1 mCi/mL, 18.75 mg ascorbic acid, 8.9-11.5 mCi, 0.85-1.09 mCi/mL, IRE Galli Eo, average of 2, T0
[5] = bracketing ~1 mCi/mL, 18.75 mg ascorbic acid, 8.9-11.5 mCi, 0.85-1.09 mCi/mL, IRE Galli Eo, average of 2, T1 (1 h)
[6] = bracketing ~1 mCi/mL, 25 mg ascorbic acid, 8.8-12.7 mCi, 0.84-1.21 mCi/mL, 2 × IRE Galli Eo, average of 2, T0
[7] = bracketing ~1 mCi/mL, 25 mg ascorbic acid, 8.8-12.7 mCi, 0.84-1.21 mCi/mL, 2 × IRE Galli Eo, average of 2, T1 (1 h)
[8] = bracketing ~1 mCi/mL, 31.25 mg ascorbic acid, 15.2-26.9 mCi, 1.44-2.54 mCi/mL, EZAG GalliaPharm, average of 2, T0
[9] = bracketing ~1 mCi/mL, 31.25 mg ascorbic acid, 15.2-26.9 mCi, 1.44-2.54 mCi/mL, EZAG GalliaPharm, average of 2, T1 (1 h)
[10] = bracketing ~7 mCi/mL, 18.75 mg ascorbic acid, 51.0-58.0 mCi, 5.55-6.5 mCi/mL, IRE Galli Eo, average of 2, T0
[11] = bracketing ~7 mCi/mL, 18.75 mg ascorbic acid, 51.0-58.0 mCi, 5.55-6.5 mCi/mL, IRE Galli Eo, average of 2, T4 (4 h)
[12] = bracketing ~7 mCi/mL, 25 mg ascorbic acid, 51.6-74.4 mCi, 4.56-6.92 mCi/mL, 3 × GE Liquid Target, 3 × IRE Galli Eo, 3 × EZAG GalliaPharm, average of 9, T0
[13] = bracketing ~7 mCi/mL, 25 mg ascorbic acid, 51.6-74.4 mCi, 4.56-6.92 mCi/mL, 3 × GE Liquid Target, 3 × IRE Galli Eo, 3 × EZAG GalliaPharm, average of 9, T4 (4 h)
[14] = bracketing ~7 mCi/mL, 31.25 mg ascorbic acid, 61.5-62.0 mCi, 5.85-5.88 mCi/mL, EZAG GalliaPharm, average of 2, T0
[15] = bracketing ~7 mCi/mL, 31.25 mg ascorbic acid, 61.5-62.0 mCi, 5.85-5.88 mCi/mL, EZAG GalliaPharm, average of 2, T4 (4 h)
[16] = bracketing ~50 mCi/mL, 20 mg ascorbic acid, 514-544 mCi, 48.3-51.9 mCi/mL, GE Solid Target, average of 2, T0
[17] = bracketing ~50 mCi/mL, 20 mg ascorbic acid, 514-544 mCi, 48.3-51.9 mCi/mL, GE Solid Target, average of 2, T6 (6 h)
[18] = bracketing ~50 mCi/mL, 25 mg ascorbic acid, 537-551 mCi, 50.2-51.6 mCi/mL, GE Solid Target, average of 3, T0
[19] = bracketing ~50 mCi/mL, 25 mg ascorbic acid, 537-551 mCi, 50.2-51.6 mCi/mL, GE Solid Target, average of 3, T6 (6 h)
[20] = bracketing ~50 mCi/mL, 31.25 mg ascorbic acid, 500-544 mCi, 48.1-51.7 mCi/mL, GE Solid Target, average of 2, T0

O=C([O-])CN(CCN(CC(=O)[O-])Cc1cc(CCC(=O)NCCCCCC(=O)NCCCC[C@H](NC(=O)N[C@@H](CCC(=O)O)C(=O)O)C(=O)O)ccc1[O-])Cc1cc(CCC(=O)O)ccc1[O-].[68Ga+3].[OH3+] [[^68Ga]PSMA-11, gallium-68 radiolabelled Glu-urea-Lys-HBED-CC (gozetotide or PSMA-11)]
Radiochemical Purity (iTLC) Free and Colloidal Ga-68 (%) [1]: 0% | Radiochemical Purity (iTLC) Ga-68 PSMA-11 (%) [1]: 100% | Radiochemical Purity (iTLC) Free and Colloidal Ga-68 (%) [2]: C (C = all results conform to specifications) | Radiochemical Purity (iTLC) Ga-68 PSMA-11 (%) [2]: C (C = all results conform to specifications) | Radiochemical Purity (iTLC) Free and Colloidal Ga-68 (%) [3]: C (C = all results conform to specifications) | Radiochemical Purity (iTLC) Ga-68 PSMA-11 (%) [3]: C (C = all results conform to specifications) | Radiochemical Purity (iTLC) Free and Colloidal Ga-68 (%) [4]: 0% | Radiochemical Purity (iTLC) Ga-68 PSMA-11 (%) [4]: 100% | Radiochemical Purity (iTLC) Free and Colloidal Ga-68 (%) [5]: 0% | Radiochemical Purity (iTLC) Ga-68 PSMA-11 (%) [5]: 100% | Radiochemical Purity (iTLC) Free and Colloidal Ga-68 (%) [6]: 0% | Radiochemical Purity (iTLC) Ga-68 PSMA-11 (%) [6]: 100% | Radiochemical Purity (iTLC) Free and Colloidal Ga-68 (%) [7]: 0% | Radiochemical Purity (iTLC) Ga-68 PSMA-11 (%) [7]: 100% | Radiochemical Purity (iTLC) Free and Colloidal Ga-68 (%) [8]: 0% | Radiochemical Purity (iTLC) Ga-68 PSMA-11 (%) [8]: 100% | Radiochemical Purity (iTLC) Free and Colloidal Ga-68 (%) [9]: 0% | Radiochemical Purity (iTLC) Ga-68 PSMA-11 (%) [9]: 100% | Radiochemical Purity (iTLC) Free and Colloidal Ga-68 (%) [10]: 0% | Radiochemical Purity (iTLC) Ga-68 PSMA-11 (%) [10]: 100% | Radiochemical Purity (iTLC) Free and Colloidal Ga-68 (%) [11]: 0% | Radiochemical Purity (iTLC) Ga-68 PSMA-11 (%) [11]: 100% | Radiochemical Purity (iTLC) Free and Colloidal Ga-68 (%) [12]: 0% | Radiochemical Purity (iTLC) Ga-68 PSMA-11 (%) [12]: 100% | Radiochemical Purity (iTLC) Free and Colloidal Ga-68 (%) [13]: 1% | Radiochemical Purity (iTLC) Ga-68 PSMA-11 (%) [13]: 99% | Radiochemical Purity (iTLC) Free and Colloidal Ga-68 (%) [14]: 0% | Radiochemical Purity (iTLC) Ga-68 PSMA-11 (%) [14]: 100% | Radiochemical Purity (iTLC) Free and Colloidal Ga-68 (%) [15]: 0% | Radiochemical Purity (iTLC) Ga-68 PSMA-11 (%) [15]: 100% | Radiochemical Purity (iTLC) Free and Colloidal Ga-68 (%) [16]: 3% | Radiochemical Purity (iTLC) Ga-68 PSMA-11 (%) [16]: 97% | Radiochemical Purity (iTLC) Free and Colloidal Ga-68 (%) [17]: 2% | Radiochemical Purity (iTLC) Ga-68 PSMA-11 (%) [17]: 98% | Radiochemical Purity (iTLC) Free and Colloidal Ga-68 (%) [18]: 0% | Radiochemical Purity (iTLC) Ga-68 PSMA-11 (%) [18]: 100% | Radiochemical Purity (iTLC) Free and Colloidal Ga-68 (%) [19]: 1% | Radiochemical Purity (iTLC) Ga-68 PSMA-11 (%) [19]: 99% | Radiochemical Purity (iTLC) Free and Colloidal Ga-68 (%) [20]: 1% | Radiochemical Purity (iTLC) Ga-68 PSMA-11 (%) [20]: 99% | Radiochemical Purity (iTLC) Free and Colloidal Ga-68 (%) (bracketing ~50 mCi/mL, 31.25 mg ascorbic acid, 500-544 mCi, 48.1-51.7 mCi/mL, GE Solid Target, average of 2, T6 (6 h)): 1%
